# Test results published in patent US11713318B2, “Short conjugated oligoelectrolytes and uses thereof” (The Regents Of The University Of California, priority 2018, dated 2023).
# Columns and labels:
# Type in all cases: cell-based
# S. aureus (MSSA) = experiment: MIC panel of pathogens, Table 4; settings: Staphylococcus aureus
# P. aeruginosa = experiment: MIC panel of pathogens, Table 4; settings: Pseudomonas aeruginosa
# N. gonorrhoeae = experiment: MIC panel of pathogens, Table 4; settings: Neisseria gonorrhoeae
# [1] = Cytotoxicity tested by Eurofins Pharma Discovery Services; settings: Primary Human Hepatocytes, Eurofins; at the concentration given as IC50 bound; read-out: cell viability at the highest or lowest test concentration
SMILES,MIC (S. aureus (MSSA)),MIC (P. aeruginosa),MIC (N. gonorrhoeae),viability [1]
CCCCCC[N+](C)(C)CCCCCCOc1cc(/C=C/c2cc(OCCCCCC[N+](C)(C)CCCCCC)cc(OCCCCCC[N+](C)(C)CCCCCC)c2)cc(OCCCCCC[N+](C)(C)CCCCCC)c1 [Formula E],1 µg/mL,8 µg/mL,0.5 µg/mL,
C[N+](C)(C)CCCCOc1cc(/C=C/c2ccc(/C=C/c3cc(OCCCC[N+](C)(C)C)cc(OCCCC[N+](C)(C)C)c3)cc2)cc(OCCCC[N+](C)(C)C)c1.[I-].[I-].[I-].[I-] [Formula F],,,,79%
